Measured values reported in patent publication US10670605B2, “Cysteine reactive probes and uses thereof” (The Scripps Research Institute, priority 2015, dated 2020).
Values belong to the compound of their own block, whether it stands above or below them.

What was measured:
Assay in all cases: Competitive isoTOP-ABPP, cell lysates;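 for isoTOP-ABPP reactivity profile ratio, Q99873 C109: Heavy/light ratio DMSO over fragment-treated so higher means more cysteine engagement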
Assay type in all cases: binding
ACAT1 C119 (P24752) = molecular target: T1, ACAT1 C119 (P24752) (Homo sapiens, UniProt P24752); settings: for isoTOP-ABPP reactivity ratio, P24752_C119 / isoTOP-ABPP reactivity profile ratio, P24752_C119: 500 μm
T1 sequence (P24752 34-427): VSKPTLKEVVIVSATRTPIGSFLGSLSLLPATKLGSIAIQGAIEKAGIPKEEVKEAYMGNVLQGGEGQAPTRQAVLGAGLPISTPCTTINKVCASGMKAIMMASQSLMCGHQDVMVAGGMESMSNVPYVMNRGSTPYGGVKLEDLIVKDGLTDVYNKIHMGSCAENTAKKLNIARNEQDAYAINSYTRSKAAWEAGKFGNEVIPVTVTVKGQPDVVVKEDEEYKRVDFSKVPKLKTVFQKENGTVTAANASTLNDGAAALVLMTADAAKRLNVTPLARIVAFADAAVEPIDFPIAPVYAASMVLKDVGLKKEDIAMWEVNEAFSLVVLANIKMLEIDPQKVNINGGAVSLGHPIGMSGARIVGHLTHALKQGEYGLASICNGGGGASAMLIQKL

PCK2 C306 (Q16822) = molecular target: T2, PCK2 C306 (Q16822) (Homo sapiens, UniProt Q16822)
T2 sequence (Q16822 33-640): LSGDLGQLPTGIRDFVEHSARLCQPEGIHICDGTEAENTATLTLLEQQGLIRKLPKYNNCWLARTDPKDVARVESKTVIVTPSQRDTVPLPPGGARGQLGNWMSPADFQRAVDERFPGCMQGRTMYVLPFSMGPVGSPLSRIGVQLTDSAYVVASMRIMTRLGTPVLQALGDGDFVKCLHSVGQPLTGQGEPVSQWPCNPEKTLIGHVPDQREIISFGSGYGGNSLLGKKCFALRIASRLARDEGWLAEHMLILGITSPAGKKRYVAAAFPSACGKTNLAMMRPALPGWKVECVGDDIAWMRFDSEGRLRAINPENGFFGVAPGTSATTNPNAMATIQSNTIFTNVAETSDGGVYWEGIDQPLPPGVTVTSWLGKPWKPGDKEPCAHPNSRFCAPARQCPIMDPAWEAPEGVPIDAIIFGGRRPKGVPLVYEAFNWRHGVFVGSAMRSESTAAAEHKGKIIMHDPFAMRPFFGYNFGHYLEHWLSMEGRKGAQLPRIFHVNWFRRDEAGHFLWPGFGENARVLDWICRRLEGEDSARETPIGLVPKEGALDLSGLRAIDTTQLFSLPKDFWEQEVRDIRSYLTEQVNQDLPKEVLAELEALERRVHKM

PRMT1 C109 (Q99873) = PRMT1 C109 (Q99873) (Homo sapiens, UniProt Q99873); settings: for isoTOP-ABPP reactivity ratio, Q99873_C109 / isoTOP-ABPP reactivity profile ratio, Q99873_C109: 500 μm;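 for isoTOP-ABPP reactivity profile ratio, Q99873 C109: Heavy/light ratio DMSO over fragment-treated so higher means more cysteine engagement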
XPO1 C528 (O14980) = XPO1 C528 (O14980) (Homo sapiens, UniProt O14980)
ADA C75 (P00813) = molecular target: T3, ADA C75 (P00813) (Homo sapiens, UniProt P00813); settings: for isoTOP-ABPP ratio (reactivity profile), P00813_C75: 500 μm in-vitro ramos
T3 sequence (P00813 1-363): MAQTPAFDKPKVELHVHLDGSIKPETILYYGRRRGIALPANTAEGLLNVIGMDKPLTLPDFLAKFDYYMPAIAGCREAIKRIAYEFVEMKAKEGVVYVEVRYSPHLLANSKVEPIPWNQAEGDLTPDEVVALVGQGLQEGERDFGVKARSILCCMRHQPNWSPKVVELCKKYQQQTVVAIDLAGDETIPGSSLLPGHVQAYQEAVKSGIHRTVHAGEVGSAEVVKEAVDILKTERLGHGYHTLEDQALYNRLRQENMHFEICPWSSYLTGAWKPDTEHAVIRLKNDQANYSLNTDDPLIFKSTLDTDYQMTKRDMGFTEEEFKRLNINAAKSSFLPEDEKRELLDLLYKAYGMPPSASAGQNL

Chain of XPO1 C528 (O14980) (O14980 whole entry): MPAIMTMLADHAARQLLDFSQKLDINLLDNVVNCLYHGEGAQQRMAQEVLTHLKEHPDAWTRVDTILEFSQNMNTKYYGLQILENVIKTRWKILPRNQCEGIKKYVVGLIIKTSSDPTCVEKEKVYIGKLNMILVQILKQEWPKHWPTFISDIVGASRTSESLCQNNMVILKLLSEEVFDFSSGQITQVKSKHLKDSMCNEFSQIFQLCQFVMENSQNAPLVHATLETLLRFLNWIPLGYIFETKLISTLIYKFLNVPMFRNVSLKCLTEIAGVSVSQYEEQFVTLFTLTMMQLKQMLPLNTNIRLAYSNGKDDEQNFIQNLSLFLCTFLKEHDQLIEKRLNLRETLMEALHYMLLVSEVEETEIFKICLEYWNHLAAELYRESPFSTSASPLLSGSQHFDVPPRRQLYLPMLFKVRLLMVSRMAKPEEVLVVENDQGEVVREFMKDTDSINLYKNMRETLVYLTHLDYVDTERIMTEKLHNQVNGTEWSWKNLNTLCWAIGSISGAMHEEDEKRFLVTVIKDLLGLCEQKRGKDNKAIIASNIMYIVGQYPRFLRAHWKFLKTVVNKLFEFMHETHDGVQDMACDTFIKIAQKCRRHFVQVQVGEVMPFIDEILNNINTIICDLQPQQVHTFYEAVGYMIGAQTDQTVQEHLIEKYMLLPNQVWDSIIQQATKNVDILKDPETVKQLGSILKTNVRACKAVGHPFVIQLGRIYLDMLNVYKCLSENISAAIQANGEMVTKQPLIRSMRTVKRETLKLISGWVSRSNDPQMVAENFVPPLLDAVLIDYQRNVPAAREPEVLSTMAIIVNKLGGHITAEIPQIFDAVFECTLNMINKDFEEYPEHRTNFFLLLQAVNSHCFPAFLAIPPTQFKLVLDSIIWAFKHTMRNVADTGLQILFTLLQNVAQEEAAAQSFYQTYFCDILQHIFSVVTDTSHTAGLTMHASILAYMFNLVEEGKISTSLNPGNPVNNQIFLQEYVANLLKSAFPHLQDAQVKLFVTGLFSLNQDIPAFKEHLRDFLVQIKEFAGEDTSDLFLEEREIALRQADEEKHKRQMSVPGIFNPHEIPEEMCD
Chain of PRMT1 C109 (Q99873) (Q99873 whole entry, the tested form may be a part): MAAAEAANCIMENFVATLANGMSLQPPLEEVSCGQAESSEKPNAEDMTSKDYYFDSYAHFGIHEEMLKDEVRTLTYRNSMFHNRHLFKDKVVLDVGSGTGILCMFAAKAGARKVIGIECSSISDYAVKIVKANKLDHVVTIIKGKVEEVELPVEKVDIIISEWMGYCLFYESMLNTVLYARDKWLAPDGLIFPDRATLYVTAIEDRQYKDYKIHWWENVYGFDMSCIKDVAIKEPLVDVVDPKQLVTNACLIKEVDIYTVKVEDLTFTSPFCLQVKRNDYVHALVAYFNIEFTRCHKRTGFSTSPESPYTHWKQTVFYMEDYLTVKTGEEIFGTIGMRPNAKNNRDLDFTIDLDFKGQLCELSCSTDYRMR

SMILES: COc1ccccc1OCCNC(=O)CCl [compound 28]
isoTOP-ABPP ratio (reactivity profile), P24752_C119 (ACAT1 C119 (P24752); 500 μm in-vitro ramos): 1.1
isoTOP-ABPP ratio (reactivity profile), P24752_C119 (ACAT1 C119 (P24752); 500 μm in-vitro ramos_231): 1.1
isoTOP-ABPP ratio (reactivity profile), Q16822_C306 (PCK2 C306 (Q16822); 500 μm in-vitro ramos_231): 1.1
isoTOP-ABPP ratio (reactivity profile), Q99873_C109 (PRMT1 C109 (Q99873); 500 μm in-vitro ramos): 1.1
isoTOP-ABPP ratio (reactivity profile), Q99873_C109 (PRMT1 C109 (Q99873); 500 μm in-vitro ramos_231): 0.8
isoTOP-ABPP ratio (reactivity profile), P00813_C75 (ADA C75 (P00813)): 0.9

SMILES: O=C(CCl)N1CCN(CC(=O)N2CCOCC2)CC1 [compound 29]
isoTOP-ABPP ratio (reactivity profile), P24752_C119 (ACAT1 C119 (P24752); 500 μm in-vitro ramos): 0.6
isoTOP-ABPP ratio (reactivity profile), P24752_C119 (ACAT1 C119 (P24752); 500 μm in-vitro ramos_231): 1.3
isoTOP-ABPP ratio (reactivity profile), Q16822_C306 (PCK2 C306 (Q16822); 500 μm in-vitro ramos): 0.5
isoTOP-ABPP ratio (reactivity profile), Q16822_C306 (PCK2 C306 (Q16822); 500 μm in-vitro ramos_231): 1.1
isoTOP-ABPP ratio (reactivity profile), Q99873_C109 (PRMT1 C109 (Q99873); 500 μm in-vitro ramos): 0.9
isoTOP-ABPP ratio (reactivity profile), Q99873_C109 (PRMT1 C109 (Q99873); 500 μm in-vitro ramos_231): 1.0
isoTOP-ABPP ratio (reactivity profile), O14980_C528 (XPO1 C528 (O14980); 500 μm in-vitro ramos_231): 1.0

SMILES: O=C(CCl)N(Cc1ccc(F)cc1)C12CC3CC(CC(C3)C1)C2 [compound 34]
isoTOP-ABPP reactivity ratio, P24752_C119 (ACAT1 C119 (P24752); in-vitro_ramos_231): 0.8
isoTOP-ABPP reactivity ratio, Q99873_C109 (PRMT1 C109 (Q99873); in-vitro_ramos): 1.1
isoTOP-ABPP reactivity ratio, Q99873_C109 (PRMT1 C109 (Q99873); in-vitro_ramos_231): 0.8
isoTOP-ABPP reactivity ratio, O14980_C528 (XPO1 C528 (O14980); 500 μm, in-vitro_ramos): 1.1
isoTOP-ABPP reactivity ratio, P00813_C75 (ADA C75 (P00813); 500 μm, in-vitro_ramos): 1.1

SMILES: N#CC(=Cc1ccc(-c2ccccc2Cl)o1)C(N)=O [compound 42]
isoTOP-ABPP reactivity profile ratio, P24752_C119 (ACAT1 C119 (P24752); in-vitro_ramos): 0.8
isoTOP-ABPP reactivity profile ratio, Q16822_C306 (PCK2 C306 (Q16822); 500 μm, in-vitro_ramos): 0.8
isoTOP-ABPP reactivity profile ratio, Q99873_C109 (PRMT1 C109 (Q99873); in-vitro_ramos): 0.9
isoTOP-ABPP reactivity profile ratio, P00813_C75 (ADA C75 (P00813); 500 μm, in-vitro_ramos): 0.8

SMILES: CC1CCc2ccccc2N1C(=O)CCl (stereo not drawn) [compound 45]
isoTOP-ABPP reactivity profile ratio, P24752_C119 (ACAT1 C119 (P24752); in-vitro_ramos_231): 12.4
isoTOP-ABPP reactivity profile ratio, Q16822_C306 (PCK2 C306 (Q16822); 500 μm, in-vitro_ramos_231): 3.3
isoTOP-ABPP reactivity profile ratio, Q99873_C109 (PRMT1 C109 (Q99873); in-vitro_ramos_231): 2.2

SMILES: C=CC(=O)N(c1ccccc1)C1CCCCC1 [compound 46]
isoTOP-ABPP reactivity profile ratio, P24752_C119 (ACAT1 C119 (P24752); in-vitro_ramos_231): 0.8
isoTOP-ABPP reactivity profile ratio, Q16822_C306 (PCK2 C306 (Q16822); 500 μm, in-vitro_ramos_231): 0.9
isoTOP-ABPP reactivity profile ratio, Q99873_C109 (PRMT1 C109 (Q99873); in-vitro_ramos_231): 0.8
isoTOP-ABPP reactivity profile ratio, O14980_C528 (XPO1 C528 (O14980); 500 μm, in-vitro_ramos_231): 0.7

SMILES: O=C(CCl)N1CCc2cc(Br)ccc21 [compound 50]
isoTOP-ABPP reactivity profile ratio, P24752_C119 (ACAT1 C119 (P24752); in-vitro_ramos_231): 2.1
isoTOP-ABPP reactivity profile ratio, Q16822_C306 (PCK2 C306 (Q16822); 500 μm, in-vitro_ramos_231): 2.7
isoTOP-ABPP reactivity profile ratio, Q99873_C109 (PRMT1 C109 (Q99873); in-vitro_ramos_231): 1.0

SMILES: C=CC(=O)N1CCC(Cc2ccccc2)CC1 [compound 53]
isoTOP-ABPP reactivity profile ratio, P24752_C119 (ACAT1 C119 (P24752); in-vitro_ramos): 0.7
isoTOP-ABPP reactivity profile ratio, P24752_C119 (ACAT1 C119 (P24752); in-vitro_ramos_231): 0.9
isoTOP-ABPP reactivity profile ratio, Q16822_C306 (PCK2 C306 (Q16822); 500 μm, in-vitro_ramos_231): 1.3
isoTOP-ABPP reactivity profile ratio, Q99873_C109 (PRMT1 C109 (Q99873); in-vitro_ramos): 1.1
isoTOP-ABPP reactivity profile ratio, Q99873_C109 (PRMT1 C109 (Q99873); in-vitro_ramos_231): 0.9
isoTOP-ABPP reactivity profile ratio, O14980_C528 (XPO1 C528 (O14980); 500 μm, in-vitro_ramos): 0.8

Further lines, results first:

isoTOP-ABPP ratio (reactivity profile), P24752_C119 (ACAT1 C119 (P24752); 500 μm in-vitro ramos_231): 1.0
isoTOP-ABPP ratio (reactivity profile), Q16822_C306 (PCK2 C306 (Q16822); 500 μm in-vitro ramos_231): 0.8
isoTOP-ABPP ratio (reactivity profile), Q99873_C109 (PRMT1 C109 (Q99873); 500 μm in-vitro ramos_231): 1.0
SMILES: CC(Cl)C(=O)Nc1cc(C(F)(F)F)cc(C(F)(F)F)c1 (stereo not drawn) [compound 25]

isoTOP-ABPP ratio (reactivity profile), P24752_C119 (ACAT1 C119 (P24752); 500 μm in-vitro ramos): 1.0
isoTOP-ABPP ratio (reactivity profile), Q99873_C109 (PRMT1 C109 (Q99873); 500 μm in-vitro ramos): 0.9
isoTOP-ABPP ratio (reactivity profile), O14980_C528 (XPO1 C528 (O14980); 500 μm in-vitro ramos): 0.9
isoTOP-ABPP ratio (reactivity profile), P00813_C75 (ADA C75 (P00813)): 0.8
SMILES: O=C(/C=C/c1ccccc1)Nc1cc(C(F)(F)F)cc(C(F)(F)F)c1 [compound 26]

isoTOP-ABPP ratio (reactivity profile), P24752_C119 (ACAT1 C119 (P24752); 500 μm in-vitro ramos): 0.7
isoTOP-ABPP reactivity ratio, P24752_C119 (ACAT1 C119 (P24752); in-vitro_ramos): 0.9
isoTOP-ABPP ratio (reactivity profile), Q16822_C306 (PCK2 C306 (Q16822); 500 μm in-vitro ramos): 1.2
isoTOP-ABPP reactivity ratio, Q16822_C306 (PCK2 C306 (Q16822); 500 μm, in-vitro_ramos): 1.1
isoTOP-ABPP ratio (reactivity profile), Q99873_C109 (PRMT1 C109 (Q99873); 500 μm in-vitro ramos): 1.1
isoTOP-ABPP reactivity ratio, Q99873_C109 (PRMT1 C109 (Q99873); in-vitro_ramos): 1.8
isoTOP-ABPP reactivity ratio, P00813_C75 (ADA C75 (P00813); 500 μm, in-vitro_ramos): 3.1
SMILES: CCN(CC)c1ccc(S(N)(=O)=O)cc1NC(=O)CCl [compound 30]

isoTOP-ABPP reactivity ratio, P24752_C119 (ACAT1 C119 (P24752); in-vitro_ramos): 0.9
isoTOP-ABPP reactivity ratio, P24752_C119 (ACAT1 C119 (P24752); in-vitro_ramos_231): 0.8
isoTOP-ABPP reactivity ratio, Q99873_C109 (PRMT1 C109 (Q99873); in-vitro_ramos): 1.3
isoTOP-ABPP reactivity ratio, Q99873_C109 (PRMT1 C109 (Q99873); in-vitro_ramos_231): 0.8
isoTOP-ABPP reactivity ratio, P00813_C75 (ADA C75 (P00813); 500 μm, in-vitro_ramos): 0.9
SMILES: C=CC(=O)Nc1cc(C)c(Br)cc1C [compound 40]
